Measurements taken from patent publication US20200270225A1, “Chiral Diacylhydrazine Ligands for Modulating the Expression of Exogenous Genes via an Ecdysone Receptor Complex” (Intrexon Corporation, priority 2007, published 2020).

What was measured:
[1] = system: RheoSwitch® Therapeutic System (RTS) gene expression; assay: In vivo induction of RTS SEAP reporter in electroporated mice; parameters: species or system C57BL6 mice; conditions: intraperitoneal injection 26 nmol/mouse; monitored seventeen days
Description: The wild-type D, E, and F domains from spruce budworm Choristoneura fumiferana EcR (“CfEcR-DEF”; SEQ ID NO: 1) were mutated [V107 (gtt)→1107 (att) and Y127 (tac)→E127 (gag)] and fused to a GAL4 DNA binding domain (“Gal4DBD1-147”; SEQ ID NO: 2). Helices 1 through 8 of the EF domains from Homo sapiens RXRPβ (“HsRXRβ-EF”; nucleotides 1-465 of SEQ ID NO: 4) and helices 9 through 12 of the EF domains of Locusta migratoria Ultraspiracle Protein (“LmUSP-EF”; nucleotides 403-630 of SEQ ID NO: 5) were fused to the transactivation domain from VP16 (“VP16AD”; SEQ ID NO: 6), which regulates a reporter gene human secreted alkaline phosphatase (“SEAP”, SEQ ID NO: 12) that was placed under the control of a 6xGAL4 response element (SEQ ID NO: 13) and a transthyretin promoter (SEQ ID NO: 14). Each element of the gene switch was on a separate plasmid. Receptor expression was under the control of a CMV promoter (SEQ ID NO: 15). Induction was evaluated by the amount of reporter protein expressed in the presence of ligand.
SEAP expression in serum of mice was evaluated after electroporation of the gene switch into mouse quadriceps. Mice were anesthetized with 2 μL/g of a mixture of ketamine (100 mg/mL) and xylazine (20 mg/mL). Animals were then shaved, DNA vectors injected into the muscle in a volume of 2×50 μL polyglutamic acid (12 mg/mL water), electrode conductivity gel applied, and an electrode caliber (1 cm×1 cm; model 384) was placed on hind leg. The muscle was electroporated with 200 V/cm, 8 times, for 20 msec/pulse, at 1 sec time intervals. The transverse electrical field direction was reversed after the animals received half of the pulses. Electroporation was performed with an ECM 830 electroporator from BTX Molecular Delivery Systems.
[…] In other experiments the concentration of ligand was decreased to 26 nmol/50 μL of DMSO/mouse. […]
Mouse serum was obtained by centrifugation of blood acquired by retroorbital bleeding with a small glass capillary tube. SEAP quantification was determined using a Clontech Great Escape chemiluminescence kit and by comparison with the Clontech SEAP standard. […]

[2] = Dynamic vapor sorption analysis; assay type: physicochemical; conditions: for weight loss under desiccant condition: 20% RH; for weight gain: 70% RH, after dehydration
Description: At 70% RH, the weight gain is 6.3% for the R enantiomer and 6.2% for the racemate (data not shown), indicating moderate hygroscopicity for both materials.

[3] = Intrinsic dissolution of compressed pellets in 1% Polysorbate 80; assay type: physicochemical; conditions: 1% Polysorbate 80 in di-water, 37° C., up to 120 minutes
Method: Next, the intrinsic dissolution profiles of R enantiomer and racemate of 2-ethyl-3-methoxy-benzoic acid N′-(1-tert-butyl-butyl)-N′-(3,5-dimethyl-benzoyl)-hydrazide were determined using compressed pellets (7 mm diameter, 100 mg) in 1% Polysorbate 80 in Di-water at 37° C., according to the following test conditions:
Medium: 1% Polysorbate 80 in di-water (vacuum filtered thru a 0.8 μM filter)
Sampling volume: 1 mL (filtered thru 30 micron)
Analysis: HPLC (prepare standard solutions from each lot)
Sample size: n=2 pellets/test substance
After 120 minutes, it was observed that the pellets for both substances remained intact in the medium.

MDR1-MDCK cells = assay: Blood brain barrier penetration potential using MDR1-MDCK cells; assay type: in vitro ADME
Method: The test compounds were prepared as a 5 μM solution in HBSSg with a maximum DMSO concentration ≤1%. Confluent monolayers of MDR1-MDCK cells, 7 to 11 days old were prepared. The receiver well was prepared with 1% BSA in modified Hanks buffer (HBSSg), and the apical and basolateral sides were maintained at pH 7.4±0.2. Two monolayers were dosed in each direction (N=2): the apical side was dosed for (A→B) assessment and the basolateral side was dosed for (B→A) assessment. Test compound concentration was measured for both apical and basolateral sides at a time point of 120 minutes using a generic LC/MS/MS method with a minimum 4 point calibration curve. The reported values in FIG. 14: the percent recovery of the test compound from the Transwell® wells containing MDR1-MDCK cell monolayers; apparent permeability (Papp) in both directions; efflux ratio (Papp B→A)/(Papp A→B); and the blood-brain barrier penetration potential classification. […] Also, R enantiomer experiences less efflux. […] Higher blood-brain barrier penetration is a significant advantage for medical indications where central nervous system (CNS) penetration is required.

Structure (SMILES) | RTS gene reporter (SEAP) expression in mouse serum [1] | weight loss under desiccant condition [2] | weight gain [2] [%] | release from compressed pellets (intrinsic dissolution) [3] | blood-brain barrier penetration potential classification (MDR1-MDCK cells) | efflux, compared (MDR1-MDCK cells) | apparent permeability (Papp), compared (MDR1-MDCK cells; A→B and B→A, 5 μM, 120 minutes)
CCC[C@@H](N(NC(=O)c1cccc(OC)c1CC)C(=O)c1cc(C)cc(C)c1)C(C)(C)C [Example 1, (R)-3,5-Dimethyl-benzoic Acid N-(1-tert-butyl-butyl)-N′-(2-ethyl-3-methoxy-benzoyl)-hydrazide] | induces substantial RTS gene reporter expression | 0.9 % of total weight | 6.3 | under the detection limit | moderately penetrating through the blood-brain barrier | less efflux | more permeable than racemate in both A→B and B→A directions
CCCC(N(NC(=O)c1cccc(OC)c1CC)C(=O)c1cc(C)cc(C)c1)C(C)(C)C (racemic) [rac-1, rac-2-ethyl-3-methoxy-benzoic acid N′-(1-tert-butyl-butyl)-N′-(3,5-dimethyl-benzoyl)-hydrazide] | induces modest RTS gene reporter expression | did not show any significant weight loss | 6.2 | under the detection limit | low | – | –
